Source: ChEMBL document CHEMBL4219183, “Novel purine benzimidazoles as antimicrobial agents by regulating ROS generation and targeting clinically resistant Staphylococcus aureus DNA groove” (Bioorg Med Chem Lett, 2018)
Converted amounts (≈) assume the structure as drawn.

Experiments:
Assay type in all cases: functional
Staphylococcus aureus [1] = test: Antibacterial activity against methicillin-resistant Staphylococcus aureus N315 after 24 hrs by two fold serial dilution method; settings: N315, 24 h
Enterococcus faecalis = test: Antibacterial activity against Enterococcus faecalis after 24 hrs by two fold serial dilution method
Staphylococcus aureus [2] = test: Antibacterial activity against Staphylococcus aureus after 24 hrs by two fold serial dilution method
Staphylococcus aureus [3] = test: Antibacterial activity against Staphylococcus aureus ATCC 25923 after 24 hrs by two fold serial dilution method; settings: ATCC 25923, 24 h
Staphylococcus aureus [4] = test: Antibacterial activity against Staphylococcus aureus ATCC 29213 after 24 hrs by two fold serial dilution method; settings: ATCC 29213, 24 h
Klebsiella pneumoniae = test: Antibacterial activity against Klebsiella pneumoniae after 24 hrs by two fold serial dilution method
Escherichia coli [5] = test: Antibacterial activity against Escherichia coli after 24 hrs by two fold serial dilution method
Pseudomonas aeruginosa [6] = test: Antibacterial activity against Pseudomonas aeruginosa after 24 hrs by two fold serial dilution method
Acinetobacter baumannii = test: Antibacterial activity against Acinetobacter baumannii after 24 hrs by two fold serial dilution method
Pseudomonas aeruginosa [7] = test: Antibacterial activity against Pseudomonas aeruginosa ATCC 27853 after 24 hrs by two fold serial dilution method; settings: ATCC 27853, 24 h
Escherichia coli [8] = test: Antibacterial activity against Escherichia coli ATCC 25922 after 24 hrs by two fold serial dilution method; settings: ATCC 25922, 24 h
Candida albicans [9] = test: Antifungal activity against Candida albicans after 24 hrs by two fold serial dilution method
Candida tropicalis = test: Antifungal activity against Candida tropicalis after 24 hrs by two fold serial dilution method
Aspergillus fumigatus = test: Antifungal activity against Aspergillus fumigatus after 24 hrs by two fold serial dilution method
Candida albicans [10] = test: Antifungal activity against Candida albicans ATCC 90023 after 24 hrs by two fold serial dilution method; settings: ATCC 90023, 24 h
Candida parapsilosis = test: Antifungal activity against Candida parapsilosis ATCC 22019 after 24 hrs by two fold serial dilution method; settings: ATCC 22019, 24 h

Structure (SMILES)	MIC (Staphylococcus aureus [1]) [µg/mL]	MIC (Enterococcus faecalis) [µg/mL]	MIC (Staphylococcus aureus [2]) [µg/mL]	MIC (Staphylococcus aureus [3]) [µg/mL]	MIC (Staphylococcus aureus [4]) [µg/mL]	MIC (Klebsiella pneumoniae) [µg/mL]	MIC (Escherichia coli [5]) [µg/mL]	MIC (Pseudomonas aeruginosa [6]) [µg/mL]	MIC (Acinetobacter baumannii) [µg/mL]	MIC (Pseudomonas aeruginosa [7]) [µg/mL]	MIC (Escherichia coli [8]) [µg/mL]	MIC80 (Candida albicans [9]) [µg/mL]	MIC80 (Candida tropicalis) [µg/mL]	MIC80 (Aspergillus fumigatus) [µg/mL]	MIC80 (Candida albicans [10]) [µg/mL]	MIC80 (Candida parapsilosis) [µg/mL]
CCCCCCCCCCn1c(Cn2cnc3c(N4CCOCC4)ncnc32)nc2ccccc21	256 (≈ 538 µM)	128 (≈ 269 µM)	256 (≈ 538 µM)	256 (≈ 538 µM)	256 (≈ 538 µM)	128 (≈ 269 µM)	32 (≈ 67.3 µM)	256 (≈ 538 µM)	256 (≈ 538 µM)	16 (≈ 33.6 µM)	128 (≈ 269 µM)	128 (≈ 269 µM)	256 (≈ 538 µM)	256 (≈ 538 µM)	64 (≈ 135 µM)	256 (≈ 538 µM)
CCCCn1c(Cn2cnc3c(N4CCOCC4)ncnc32)nc2ccccc21	512 (≈ 1310 µM)	256 (≈ 654 µM)	256 (≈ 654 µM)	256 (≈ 654 µM)	128 (≈ 327 µM)	256 (≈ 654 µM)	64 (≈ 163 µM)	256 (≈ 654 µM)	256 (≈ 654 µM)	128 (≈ 327 µM)	128 (≈ 327 µM)	256 (≈ 654 µM)	128 (≈ 327 µM)	256 (≈ 654 µM)	128 (≈ 327 µM)	256 (≈ 654 µM)
Clc1cccc(Cn2c(Cn3cnc4c(N5CCOCC5)ncnc43)nc3ccccc32)c1	512 (≈ 1110 µM)	128 (≈ 278 µM)	256 (≈ 557 µM)	128 (≈ 278 µM)	128 (≈ 278 µM)	128 (≈ 278 µM)	256 (≈ 557 µM)	512 (≈ 1110 µM)	256 (≈ 557 µM)	256 (≈ 557 µM)	256 (≈ 557 µM)	512 (≈ 1110 µM)	128 (≈ 278 µM)	256 (≈ 557 µM)	128 (≈ 278 µM)	512 (≈ 1110 µM)
CCn1cc(C(=O)O)c(=O)c2cc(F)c(N3CCNCC3)cc21 [NORFLOXACIN]	> 512	256 (≈ 802 µM)	64 (≈ 200 µM)	32 (≈ 100 µM)	8 (≈ 25.1 µM)	> 512	512 (≈ 1600 µM)	4 (≈ 12.5 µM)	32 (≈ 100 µM)	512 (≈ 1600 µM)	1 (≈ 3.13 µM)	–	–	–	–	–
c1ccc2c(c1)ncn2CCn1cnc2c(N3CCOCC3)ncnc21	256 (≈ 733 µM)	128 (≈ 366 µM)	256 (≈ 733 µM)	256 (≈ 733 µM)	256 (≈ 733 µM)	256 (≈ 733 µM)	256 (≈ 733 µM)	128 (≈ 366 µM)	256 (≈ 733 µM)	256 (≈ 733 µM)	128 (≈ 366 µM)	256 (≈ 733 µM)	256 (≈ 733 µM)	256 (≈ 733 µM)	128 (≈ 366 µM)	128 (≈ 366 µM)
